Experimental data published in patent US20160046592A1, “PHARMACEUTICAL COMPOSITION FOR THE TREATMENT OF DIABETES” (Ajinomoto Co., Inc., priority 2013, published 2016).
Where a name gives a salt, the structure may show the parent alone.

Target: T1, human GYS1 (glycogen synthase) (Homo sapiens, UniProt P13807)
T1 construct: made in house; host or cells: HEK293T
T1 sequence (P13807 1-737): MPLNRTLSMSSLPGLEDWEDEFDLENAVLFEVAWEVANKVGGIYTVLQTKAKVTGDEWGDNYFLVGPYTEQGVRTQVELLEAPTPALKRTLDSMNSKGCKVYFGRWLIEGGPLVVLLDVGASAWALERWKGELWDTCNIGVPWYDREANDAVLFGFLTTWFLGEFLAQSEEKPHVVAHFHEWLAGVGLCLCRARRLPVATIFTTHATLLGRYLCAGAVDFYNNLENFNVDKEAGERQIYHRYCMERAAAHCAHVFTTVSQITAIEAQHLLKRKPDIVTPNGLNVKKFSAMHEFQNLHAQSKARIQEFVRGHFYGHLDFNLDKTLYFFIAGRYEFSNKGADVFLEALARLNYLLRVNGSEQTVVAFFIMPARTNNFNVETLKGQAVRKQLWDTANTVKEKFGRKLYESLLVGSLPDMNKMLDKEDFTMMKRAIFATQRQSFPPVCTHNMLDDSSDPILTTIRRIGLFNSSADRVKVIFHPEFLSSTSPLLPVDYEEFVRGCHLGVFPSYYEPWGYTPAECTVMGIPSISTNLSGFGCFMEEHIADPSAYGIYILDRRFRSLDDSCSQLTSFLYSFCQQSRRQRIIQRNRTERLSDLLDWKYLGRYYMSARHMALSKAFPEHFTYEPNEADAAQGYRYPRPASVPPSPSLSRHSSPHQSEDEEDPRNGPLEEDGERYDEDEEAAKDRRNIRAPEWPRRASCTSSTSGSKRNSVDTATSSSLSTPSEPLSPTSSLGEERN
Test: Measurement of glycogen synthase activity
Type: biochemical
Details: concentration causing 50% increase in relative activity; 100% = compound of Example 1 of WO/2011/058154 at 10 μM; 10 mM Glucose-6-phosphate; 37° C. for 25 minutes (Examples 1 to 61 and 67 to 82) or 20 minutes (Examples 62 to 66); absorbance at 340 nm
Experimental: A human GYS1 expression plasmid (pCDNA3.1(+)-hGYS1) was constructed by the following method. By using a human skeletal muscle cDNA of Human MTC Panel I (Takara Bio Inc., 636742) as a template, a human GYS1 gene was amplified by a PCR method using cloning primers (Forward Primer: ATGCCTTTAAACCGCAC, Reverse Primer: TTAGTTACGCTCCTCGC). By using the amplified human GYS1 sequence as a template, restriction enzyme sequences were added by a PCR method using sub-cloning primers (Forward Primer: […], and Reverse Primer: […]), and then the human GYS1 gene was introduced between Xho I and Xba I sites of pCDNA3.1(+) (Invitrogen, V790-20).
Glycogen synthase was prepared by the following method. Human kidney-derived HEK293T cells were seeded in a dish (Thermo Fisher Scientific K.K., 168381) by using a 10% FBS-containing DMEM (Nacalai Tesque, Inc., 0845874) medium, and cultured overnight. Then, by using Lipofectamine LTX (Invitrogen, 15338-100), the cells were transfected with the human GYS1 expression vector according to the attached manual. After culturing under conditions of 37° C. and 5% CO2 for 2 days, the resultant was lysed in a lysis buffer (50 mM Tris-HCl (pH 8.0), 10 mM EDTA, 2 mM EGTA, 100 mM NaF, 1 mM PMSF, 1 mM DTT, and 1× Complete (Roche, 1873580)), homogenized, and then centrifuged at 16000×g at 4° C. for 15 minutes. The precipitated fraction re-dissolved by adding the lysis buffer was used as a glycogen synthase for evaluation.
The glycogen synthase activity was measured by the following method. To a polystyrene 96-well plate, solutions each containing 30 mM glycylglycine (pH 7.3), 40 mM KCl, 20 mM MgCl2, 9.2% DMSO containing one of the test compounds at one of various concentrations, and 10 mM Glucose-6-phosphate (Sigma-Aldrich, G7879) were added at 12 μL/well.
Next, a substrate solution containing 30 mM glycylglycine (pH 7.3), 4.3 mg/mL glycogen (Sigma-Aldrich, G8876), 21.6 mM UDP-glucose (Sigma-Aldrich, U4625), 21.6 mM phosphoenolpyruvic acid (Sigma-Aldrich, P0564), and 4.05 mM NADH (Sigma-Aldrich, N8129) was added at 18 μL/well.
Moreover, an enzyme solution containing 50 mM Tris-HCl (pH 8.0), 27 mM DTT (NACALAI TESQUE, INC., 14128-04), 0.2 mg/mL bovine serum albumin, 0.17 mg/mL glycogen synthase, and 1.5 μL pyruvate kinase/lactate dehydrogenase solution (Sigma-Aldrich, P0294) was added at 18 μL/well to prepare reaction solutions. After the reaction solutions were incubated (at 37° C. for 25 minutes for Examples 1 to 61 and 67 to 82 or at 37° C. for 20 minutes for Examples 62 to 66), the absorbance at 340 nm was measured by using Benchmark Plus (Bio-Rad Laboratories, Inc.).
The activity of each test compound was calculated by the following method. The absorbance at 340 nm of the reaction solution containing the compound and DMSO was subtracted from the absorbance at 340 nm of a reaction solution not containing the compound but containing only DMSO to calculate the change (ΔA340) in absorbance. The relative activity (%) of the test compound at each of the various concentrations was calculated, where the ΔA340 of a reaction solution containing the compound of Example 1 of WO/2011/058154 at a final concentration of 10 μM was taken as 100%. EC50 representing the concentration of the compound at which an increase in the relative activity by 50% was caused was calculated using XLfit (idbs).

Compound | EC50
CSc1cc(F)c(F)cc1-c1ccc(OCc2cccc(C(=O)N3C[C@H](C(N)=O)C[C@H]3C(=O)O)c2)cc1 [Example 61, (2S,4R)-4-Carbamoyl-1-[3-[[4-(4,5-difluoro-2-methylsulfanyl-phenyl)phenoxy]methyl]benzoyl]pyrrolidine-2-carboxylic Acid] | 19 nM
CSc1cc(F)c(F)cc1-c1ccc(OCc2cccc(C(=O)N(CC(=O)O)CC3CCNCC3)c2)cc1 [Example 35, 2-[[3-[[4-(4,5-Difluoro-2-methylsulfanyl-phenyl)phenoxy]methyl]benzoyl]-(4-piperidylmethyl)amino]acetic Acid Trifluoroacetate] | 19 nM
CSc1cc(F)c(F)cc1-c1ccc(OCc2cccc(C(=O)N(CCS(N)(=O)=O)CC(=O)O)c2)cc1 [Example 51, 2-[[3-[[4-(4,5-Difluoro-2-methylsulfanyl-phenyl)phenoxy]methyl]benzoyl]-(2-sulfamoylethyl)amino]acetic Acid] | 5.2 nM
CSc1cc(F)c(F)cc1-c1ccc(OCc2cccc(C(=O)N(CC(=O)O)Cc3cnco3)c2)cc1 [Example 47, 2-[[3-[[4-(4,5-Difluoro-2-methylsulfanyl-phenyl)phenoxy]methyl]benzoyl]-(oxazol-5-ylmethyl)amino]acetic Acid] | 18 nM
COC[C@H]1CC[C@@H](C(=O)O)N1C(=O)c1cccc(COc2ccc(-c3cc(F)c(F)cc3SC)cc2)c1 [Example 65, (2S,5R)-1-[3-[[4-(4,5-Difluoro-2-methylsulfanyl-phenyl)phenoxy]methyl]benzoyl]-5-(methoxymethyl)pyrrolidine-2-carboxylic Acid] | 18 nM
CSc1cc(F)c(F)cc1-c1ccc(OCc2cccc(C(=O)N3CC[C@H](O)[C@H]3C(=O)O)c2)cc1 [Example 5, (2S,3S)-1-[3-[[4-(4,5-Difluoro-2-methylsulfanyl-phenyl)phenoxy]methyl]benzoyl]-3-hydroxy-pyrrolidine-2-carboxylic Acid] | < 10 nM
CO[C@H]1CCN(C(=O)c2cccc(COc3ccc(-c4cc(F)c(F)c5ccoc45)cc3)c2)[C@@H]1C(=O)O [Example 78, (2S,3S)-1-[3-[[4-(4,5-Difluorobenzofuran-7-yl)phenoxy]methyl]benzoyl]-3-methoxy-pyrrolidine-2-carboxylic Acid] | 20 nM
N#CCCN(CC(=O)O)C(=O)c1cccc(COc2ccc(-c3cc(F)c(F)c4ccoc34)cc2)c1 [Example 75, 2-[2-Cyanoethyl-[3-[[4-(4,5-difluorobenzofuran-7-yl)phenoxy]methyl]benzoyl]amino]acetic Acid] | 22 nM
Cc1coc2c(-c3ccc(OCc4cccc(C(=O)N(CCS(C)(=O)=O)CC(=O)O)c4)cc3)cc(F)c(F)c12 [Example 14, 2-[[3-[[4-(4,5-Difluoro-3-methyl-benzofuran-7-yl)phenoxy]methyl]benzoyl]-(2-methylsulfonylethyl)amino]acetic Acid] | 15 nM
CSc1cc(F)c(F)cc1-c1ccc(OCc2cccc(C(=O)N(CC(=O)O)Cc3ccn[nH]3)c2)cc1 [Example 54, 2-[[3-[[4-(4,5-Difluoro-2-methylsulfanyl-phenyl)phenoxy]methyl]benzoyl]-(1H-pyrazol-5-ylmethyl)amino]acetic Acid] | 15 nM

Second part, the compound after the results:

EC50 | Compound
9.5 nM | COCCOCCN(CC(=O)O)C(=O)c1cccc(COc2ccc(-c3cc(F)c(F)cc3SC)cc2)c1 [Example 49, 2-[[3-[[4-(4,5-Difluoro-2-methylsulfanyl-phenyl)phenoxy]methyl]benzoyl]-[2-(2-methoxyethoxy)ethyl]amino]acetic Acid]
15 nM | COCCCN(CC(=O)O)C(=O)c1cccc(COc2ccc(-c3cc(F)c(F)cc3SC)cc2)c1 [Example 30, 2-[[3-[[4-(4,5-Difluoro-2-methylsulfanyl-phenyl)phenoxy]methyl]benzoyl]-(3-methoxypropyl)amino]acetic Acid]
20 nM | CSc1cc(F)c(F)cc1-c1ccc(OCc2cccc(C(=O)N(CC(=O)O)Cc3noc(C)n3)c2)cc1 [Example 69, 2-[[3-[[4-(4,5-Difluoro-2-methylsulfanyl-phenyl)phenoxy]methyl]benzoyl]-[(5-methyl-1,2,4-oxadiazol-3-yl)methyl]amino]acetic Acid]
25 nM | CSc1cc(F)c(F)cc1-c1ccc(OCc2cccc(C(=O)N(CCNC(C)=O)CC(=O)O)c2)cc1 [Example 44, 2-[2-Acetamidoethyl-[3-[[4-(4,5-difluoro-2-methylsulfanyl-phenyl)phenoxy]methyl]benzoyl]amino]acetic Acid]
< 3 nM | NC(=O)C1CC[C@@H](C(=O)O)N1C(=O)c1cccc(COc2ccc(-c3cc(F)c(F)c4ccoc34)cc2)c1 (single isomer, unassigned) [Example 4, (2S,5R) or (2S,5S)-5-Carbamoyl-1-[3-[[4-(4,5-difluorobenzofuran-7-yl)phenoxy]methyl]benzoyl]pyrrolidine-2-carboxylic Acid]
7.2 nM | CSc1cc(F)c(F)cc1-c1ccc(OCc2cccc(C(=O)N(CC(N)=O)CC(=O)O)c2)cc1 [Example 10, 2-[(2-Amino-2-oxo-ethyl)-[3-[[4-(4,5-difluoro-2-methylsulfanyl-phenyl)phenoxy]methyl]benzoyl]amino]acetic Acid]
20 nM | CSc1cc(F)c(F)cc1-c1ccc(OCc2cccc(C(=O)N(CCCS(C)(=O)=O)CC(=O)O)c2)cc1 [Example 32, 2-[[3-[[4-(4,5-Difluoro-2-methylsulfanyl-phenyl)phenoxy]methyl]benzoyl]-(3-methylsulfonylpropyl)amino]acetic Acid]
22 nM | CSc1cc(F)c(F)cc1-c1ccc(OCc2cccc(C(=O)N(CC(=O)O)Cc3ccnn3C)c2)cc1 [Example 55, 2-[[3-[[4-(4,5-Difluoro-2-methylsulfanyl-phenyl)phenoxy]methyl]benzoyl]-[(2-methylpyrazol-3-yl)methyl]amino]acetic Acid]
15 nM | CSc1cc(F)c(F)cc1-c1ccc(OCc2cccc(C(=O)N(CC(=O)O)CC(=O)N3CCCC3)c2)cc1 [Example 25, 2-[[3-[[4-(4,5-Difluoro-2-methylsulfanyl-phenyl)phenoxy]methyl]benzoyl]-(2-oxo-2-pyrrolidin-1-yl-ethyl)amino]acetic Acid]
